We go through one compound from publication PMC3397156 (Chembiochem, 2010).

In this assay the target is T1, PatD (Prochloron didemni, UniProt Q52QI6).
T1 sequence (Q52QI6 1-784): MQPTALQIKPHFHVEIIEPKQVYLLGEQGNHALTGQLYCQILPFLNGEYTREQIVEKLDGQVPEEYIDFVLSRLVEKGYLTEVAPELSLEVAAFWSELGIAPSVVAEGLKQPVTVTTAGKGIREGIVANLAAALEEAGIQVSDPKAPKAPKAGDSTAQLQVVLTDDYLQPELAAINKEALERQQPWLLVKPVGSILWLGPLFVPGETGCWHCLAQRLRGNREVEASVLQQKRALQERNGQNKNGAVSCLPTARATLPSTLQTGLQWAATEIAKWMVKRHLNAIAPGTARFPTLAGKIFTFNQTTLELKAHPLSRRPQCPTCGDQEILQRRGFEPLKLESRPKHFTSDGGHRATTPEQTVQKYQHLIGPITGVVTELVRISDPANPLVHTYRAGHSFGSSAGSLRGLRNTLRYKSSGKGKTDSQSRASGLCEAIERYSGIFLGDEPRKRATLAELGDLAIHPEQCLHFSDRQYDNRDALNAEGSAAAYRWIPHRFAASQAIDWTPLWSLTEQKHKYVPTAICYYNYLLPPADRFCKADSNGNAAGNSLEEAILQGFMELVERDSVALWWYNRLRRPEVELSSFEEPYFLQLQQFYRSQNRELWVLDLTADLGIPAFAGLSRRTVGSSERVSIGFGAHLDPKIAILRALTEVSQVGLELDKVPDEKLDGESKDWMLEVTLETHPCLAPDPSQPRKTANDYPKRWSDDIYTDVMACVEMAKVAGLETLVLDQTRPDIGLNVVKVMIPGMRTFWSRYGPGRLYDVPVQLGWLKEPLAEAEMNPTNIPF
The following applies: ATP 100 μM, TruE2 2 μM, PatD 0.6 μM, MgCl2, DTT, 30 min.

With `Nc1ncnc2c1ncn2[C@@H]1O[C@H](COP(=O)(O)OP(=O)(O)OP(=O)(O)O)[C@@H](O)[C@H]1O` [ATP], the “HPLC of ATP hydrolysis to ADP” value is recorded as “ATP was shown to be hydrolyzed to ADP”.
